Assays:
Experiment in all cases: DiscoverX KINOMEscan kinase profiling (468 assays)
Type in all cases: binding
[1] = biological target: human kinome (Homo sapiens, UniProt P49841); settings: GSK3B; 100 nM; read-out: Percent Control
Outline: (§1)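 DNA-tagged kinases competed for immobilized biotinylated ligands on streptavidin magnetic beads, with bound kinase quantified by qPCR. VIP152 in DMSO was tested against a DMSO control.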

[2] = biological target: human kinome (Homo sapiens, UniProt P53667); settings: LIMK1; 100 nM; read-out: Percent Control
Outline: as §1

[3] = biological target: human kinome (Homo sapiens, UniProt O00444); settings: read-out: Percent Control
Chain of human kinome (Homo sapiens, UniProt O00444) (O00444 whole entry): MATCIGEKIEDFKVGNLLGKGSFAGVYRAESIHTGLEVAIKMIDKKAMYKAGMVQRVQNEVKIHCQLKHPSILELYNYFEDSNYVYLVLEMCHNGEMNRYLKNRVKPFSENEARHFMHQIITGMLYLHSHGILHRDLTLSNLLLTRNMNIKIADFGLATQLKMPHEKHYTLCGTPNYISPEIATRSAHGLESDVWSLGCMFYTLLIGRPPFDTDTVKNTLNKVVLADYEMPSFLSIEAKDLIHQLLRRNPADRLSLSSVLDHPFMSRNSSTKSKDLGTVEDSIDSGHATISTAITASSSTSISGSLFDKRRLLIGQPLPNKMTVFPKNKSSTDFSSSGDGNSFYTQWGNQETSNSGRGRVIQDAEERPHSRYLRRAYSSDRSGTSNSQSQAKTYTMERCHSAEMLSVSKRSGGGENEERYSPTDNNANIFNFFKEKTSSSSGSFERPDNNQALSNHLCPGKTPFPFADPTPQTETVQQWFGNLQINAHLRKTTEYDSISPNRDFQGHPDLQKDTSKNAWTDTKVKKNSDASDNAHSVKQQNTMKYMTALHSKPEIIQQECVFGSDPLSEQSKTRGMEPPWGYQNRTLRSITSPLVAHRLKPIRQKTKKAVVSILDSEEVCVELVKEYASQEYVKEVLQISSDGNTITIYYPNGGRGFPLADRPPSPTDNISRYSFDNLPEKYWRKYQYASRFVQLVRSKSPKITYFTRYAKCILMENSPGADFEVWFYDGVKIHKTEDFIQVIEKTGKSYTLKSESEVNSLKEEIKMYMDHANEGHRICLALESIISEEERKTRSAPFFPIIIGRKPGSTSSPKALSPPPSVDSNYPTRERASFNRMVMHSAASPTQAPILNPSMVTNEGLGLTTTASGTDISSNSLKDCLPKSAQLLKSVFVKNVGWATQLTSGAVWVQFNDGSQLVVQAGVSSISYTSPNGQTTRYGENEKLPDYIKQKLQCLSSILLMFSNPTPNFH
Outline: as §1

[4] = biological target: human kinome (Homo sapiens, UniProt P36888, D835V); settings: FLT3(D835V); 100 nM; read-out: Percent Control
Outline: as §1

[5] = biological target: human kinome (Homo sapiens, UniProt Q99683); settings: ASK1 (Entrez MAP3K5); 100 nM; read-out: Percent Control
Outline: as §1

[6] = biological target: human kinome (Homo sapiens, UniProt Q15375); settings: EPHA7; 100 nM; read-out: Percent Control
Outline: as §1

[7] = biological target: human kinome (Homo sapiens, UniProt Q9BX84); settings: kinase TRPM6 (Entrez TRPM6); compound concentration 1000 nM; read-out: Percent Control
Outline: as §1

[8] = biological target: human kinome (Homo sapiens, UniProt P10721, L576P); settings: KIT(L576P); 100 nM; read-out: Percent Control
Outline: as §1

[9] = biological target: human kinome (Homo sapiens, UniProt Q13188); settings: MST2 (Entrez STK3); 100 nM; read-out: Percent Control
Outline: as §1

[10] = biological target: human kinome (Homo sapiens, UniProt Q06418); settings: kinase TYRO3 (Entrez TYRO3); compound concentration 1000 nM; read-out: Percent Control
Outline: as §1

[11] = biological target: human kinome (Homo sapiens, UniProt Q8NI60); settings: ADCK3 (Entrez CABC1); 100 nM; read-out: Percent Control
Outline: as §1

[12] = system: human kinome; settings: for Percent Control: 100 nM
Outline: as §1

[13] = biological target: human kinome (Homo sapiens, UniProt O15530); settings: read-out: Percent Control
Chain of human kinome (Homo sapiens, UniProt O15530) (O15530 whole entry): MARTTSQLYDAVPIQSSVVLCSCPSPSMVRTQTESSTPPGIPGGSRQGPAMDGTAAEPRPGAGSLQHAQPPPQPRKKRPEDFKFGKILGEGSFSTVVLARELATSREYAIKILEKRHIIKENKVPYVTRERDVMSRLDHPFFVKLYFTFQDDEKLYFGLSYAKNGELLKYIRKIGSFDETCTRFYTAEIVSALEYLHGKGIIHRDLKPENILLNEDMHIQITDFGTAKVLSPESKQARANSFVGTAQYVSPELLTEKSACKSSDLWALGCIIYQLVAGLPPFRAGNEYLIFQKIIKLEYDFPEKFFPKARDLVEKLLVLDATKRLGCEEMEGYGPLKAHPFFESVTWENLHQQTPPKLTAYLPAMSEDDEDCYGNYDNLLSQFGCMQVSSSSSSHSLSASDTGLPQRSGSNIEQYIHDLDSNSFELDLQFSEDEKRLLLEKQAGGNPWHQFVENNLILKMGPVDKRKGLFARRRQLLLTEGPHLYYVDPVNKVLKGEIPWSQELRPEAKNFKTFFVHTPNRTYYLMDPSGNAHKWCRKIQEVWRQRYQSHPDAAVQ
Outline: as §1

[14] = biological target: human kinome (Homo sapiens, UniProt P48729); settings: CSNK1A1; 100 nM; read-out: Percent Control
Chain of human kinome (Homo sapiens, UniProt P48729) (P48729 whole entry): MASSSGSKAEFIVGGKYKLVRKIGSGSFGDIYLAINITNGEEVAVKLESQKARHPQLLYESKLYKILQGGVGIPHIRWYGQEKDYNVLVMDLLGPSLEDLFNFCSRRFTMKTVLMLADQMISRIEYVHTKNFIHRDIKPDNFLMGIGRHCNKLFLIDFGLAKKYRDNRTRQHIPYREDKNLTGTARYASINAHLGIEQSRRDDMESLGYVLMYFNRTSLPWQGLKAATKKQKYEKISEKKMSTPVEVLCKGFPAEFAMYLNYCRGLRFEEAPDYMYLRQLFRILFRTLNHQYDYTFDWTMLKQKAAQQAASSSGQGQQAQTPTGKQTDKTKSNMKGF
Outline: as §1

[15] = biological target: human kinome (Homo sapiens, UniProt Q9Y616); settings: IRAK3; 100 nM; read-out: Percent Control
Outline: as §1

[16] = biological target: human kinome (Homo sapiens, UniProt Q86V86); settings: read-out: Percent Control
Outline: as §1

[17] = biological target: human kinome (Homo sapiens, UniProt Q13164); settings: ERK5 (Entrez MAPK7); 100 nM; read-out: Percent Control
Outline: as §1

[18] = biological target: human kinome (Homo sapiens, UniProt Q96GD4); settings: AURKB; 100 nM; read-out: Percent Control
Chain of human kinome (Homo sapiens, UniProt Q96GD4) (Q96GD4 whole entry): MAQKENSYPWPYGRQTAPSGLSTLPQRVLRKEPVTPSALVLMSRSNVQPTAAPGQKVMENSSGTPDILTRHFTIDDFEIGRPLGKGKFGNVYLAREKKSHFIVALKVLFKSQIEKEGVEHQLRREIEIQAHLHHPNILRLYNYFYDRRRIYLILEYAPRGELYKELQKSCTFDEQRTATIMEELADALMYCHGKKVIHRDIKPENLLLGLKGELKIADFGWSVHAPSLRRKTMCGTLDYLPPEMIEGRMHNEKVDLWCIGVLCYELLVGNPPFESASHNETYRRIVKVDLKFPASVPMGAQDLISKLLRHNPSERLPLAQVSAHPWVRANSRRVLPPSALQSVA
Outline: as §1

[19] = biological target: human kinome (Homo sapiens, UniProt Q96RR4); settings: CAMKK2; 100 nM; read-out: Percent Control
Outline: as §1

[20] = biological target: human kinome (Homo sapiens, UniProt P49137); settings: MAPKAPK2; 100 nM; read-out: Percent Control
Outline: as §1

[21] = biological target: human kinome (Homo sapiens, UniProt Q14680); settings: MELK; 100 nM; read-out: Percent Control
Outline: as §1

[22] = biological target: human kinome (Homo sapiens, UniProt Q04759); settings: read-out: Percent Control
Chain of human kinome (Homo sapiens, UniProt Q04759) (Q04759 whole entry): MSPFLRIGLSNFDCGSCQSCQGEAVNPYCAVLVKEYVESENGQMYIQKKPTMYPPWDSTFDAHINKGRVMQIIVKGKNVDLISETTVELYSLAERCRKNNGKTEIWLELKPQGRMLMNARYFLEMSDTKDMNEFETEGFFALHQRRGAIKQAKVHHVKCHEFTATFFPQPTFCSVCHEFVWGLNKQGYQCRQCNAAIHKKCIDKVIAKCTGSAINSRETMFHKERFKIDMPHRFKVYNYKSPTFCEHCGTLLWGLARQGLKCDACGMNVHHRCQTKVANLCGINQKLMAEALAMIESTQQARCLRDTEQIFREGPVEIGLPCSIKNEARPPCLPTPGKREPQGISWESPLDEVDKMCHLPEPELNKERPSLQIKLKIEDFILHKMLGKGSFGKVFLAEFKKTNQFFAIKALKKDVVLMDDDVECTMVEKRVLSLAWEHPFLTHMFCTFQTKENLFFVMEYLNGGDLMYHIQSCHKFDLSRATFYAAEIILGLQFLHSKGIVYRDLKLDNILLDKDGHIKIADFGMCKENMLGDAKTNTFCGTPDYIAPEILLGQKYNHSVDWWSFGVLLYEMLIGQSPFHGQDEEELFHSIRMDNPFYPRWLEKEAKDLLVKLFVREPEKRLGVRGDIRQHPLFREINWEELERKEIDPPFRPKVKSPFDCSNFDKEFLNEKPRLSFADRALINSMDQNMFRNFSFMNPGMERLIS
Outline: as §1

[23] = biological target: human kinome (Homo sapiens, UniProt Q04912); settings: MST1R; 100 nM; read-out: Percent Control
Outline: as §1

[24] = biological target: human kinome (Homo sapiens, UniProt P04629); settings: kinase TRKA (Entrez NTRK1); compound concentration 1000 nM; read-out: Percent Control
Outline: as §1

[25] = biological target: human kinome (Homo sapiens, UniProt P09619); settings: read-out: Percent Control
Chain of human kinome (Homo sapiens, UniProt P09619) (P09619 33-1106): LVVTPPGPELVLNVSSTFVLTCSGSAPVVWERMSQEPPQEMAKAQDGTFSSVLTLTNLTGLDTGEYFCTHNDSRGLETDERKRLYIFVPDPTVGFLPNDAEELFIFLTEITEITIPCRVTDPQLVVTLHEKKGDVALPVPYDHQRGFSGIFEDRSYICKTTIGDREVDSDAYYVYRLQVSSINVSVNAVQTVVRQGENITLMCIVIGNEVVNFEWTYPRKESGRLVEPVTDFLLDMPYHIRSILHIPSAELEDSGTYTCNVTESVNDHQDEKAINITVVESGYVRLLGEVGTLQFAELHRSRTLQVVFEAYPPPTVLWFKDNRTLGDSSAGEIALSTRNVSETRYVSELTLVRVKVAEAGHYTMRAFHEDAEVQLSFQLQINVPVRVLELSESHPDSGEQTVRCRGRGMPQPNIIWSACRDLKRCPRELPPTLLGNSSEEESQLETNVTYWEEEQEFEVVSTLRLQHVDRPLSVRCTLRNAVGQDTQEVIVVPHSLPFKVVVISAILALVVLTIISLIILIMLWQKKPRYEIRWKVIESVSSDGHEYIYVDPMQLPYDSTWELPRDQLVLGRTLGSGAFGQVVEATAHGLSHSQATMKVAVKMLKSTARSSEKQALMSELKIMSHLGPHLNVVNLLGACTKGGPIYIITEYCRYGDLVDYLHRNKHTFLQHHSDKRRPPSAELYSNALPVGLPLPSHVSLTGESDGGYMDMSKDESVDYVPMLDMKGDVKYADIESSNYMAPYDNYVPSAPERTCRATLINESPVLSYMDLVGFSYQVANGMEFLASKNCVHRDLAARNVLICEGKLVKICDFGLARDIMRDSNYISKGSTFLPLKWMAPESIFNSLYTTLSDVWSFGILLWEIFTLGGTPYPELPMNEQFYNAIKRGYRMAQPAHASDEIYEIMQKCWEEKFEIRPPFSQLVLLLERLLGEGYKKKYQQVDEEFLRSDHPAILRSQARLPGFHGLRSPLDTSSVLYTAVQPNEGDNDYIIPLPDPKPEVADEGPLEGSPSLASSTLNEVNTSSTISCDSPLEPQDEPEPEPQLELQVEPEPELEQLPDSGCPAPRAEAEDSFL
Outline: as §1

[26] = biological target: human kinome (Homo sapiens, UniProt P48730); settings: CSNK1D; 100 nM; read-out: Percent Control
Outline: as §1

[27] = biological target: human kinome (Homo sapiens, UniProt P07332); settings: FES; 100 nM; read-out: Percent Control
Outline: as §1

[28] = biological target: human kinome (Homo sapiens, UniProt P53355); settings: DAPK1; 100 nM; read-out: Percent Control
Outline: as §1

[29] = biological target: human kinome (Homo sapiens, UniProt Q9UPE1); settings: kinase SRPK3 (Entrez SRPK3); compound concentration 1000 nM; read-out: Percent Control
Outline: as §1

[30] = biological target: human kinome (Homo sapiens, UniProt Q02156); settings: read-out: Percent Control
Chain of human kinome (Homo sapiens, UniProt Q02156) (Q02156 whole entry): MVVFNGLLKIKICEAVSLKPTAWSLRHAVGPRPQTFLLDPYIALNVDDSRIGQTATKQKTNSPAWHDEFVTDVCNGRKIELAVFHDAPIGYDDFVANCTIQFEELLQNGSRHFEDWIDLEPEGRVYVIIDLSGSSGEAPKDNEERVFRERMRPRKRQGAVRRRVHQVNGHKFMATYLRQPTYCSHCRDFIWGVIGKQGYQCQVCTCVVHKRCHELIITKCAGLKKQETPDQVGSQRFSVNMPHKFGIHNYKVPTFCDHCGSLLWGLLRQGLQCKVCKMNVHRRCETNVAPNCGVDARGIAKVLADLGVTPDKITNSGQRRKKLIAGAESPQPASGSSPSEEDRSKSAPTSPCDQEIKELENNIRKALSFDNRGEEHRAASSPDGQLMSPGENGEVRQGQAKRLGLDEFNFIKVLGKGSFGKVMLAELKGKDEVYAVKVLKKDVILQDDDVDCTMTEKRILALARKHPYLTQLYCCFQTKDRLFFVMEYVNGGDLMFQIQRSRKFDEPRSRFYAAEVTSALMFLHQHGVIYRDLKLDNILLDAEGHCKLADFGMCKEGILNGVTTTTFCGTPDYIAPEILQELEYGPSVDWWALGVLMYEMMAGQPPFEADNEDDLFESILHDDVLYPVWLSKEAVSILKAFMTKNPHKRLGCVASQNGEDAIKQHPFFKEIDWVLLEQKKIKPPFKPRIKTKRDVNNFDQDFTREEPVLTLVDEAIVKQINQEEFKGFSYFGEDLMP
Outline: as §1

Question: What does the source list for COc1cc(F)ccc1-c1cc(Nc2cc(CS(C)(=N)=O)ccn2)ncc1F (stereo not drawn) [VIP152]?
Answer: remaining binding at 0.1 µM [1]: 72%; remaining binding at 0.1 µM [2]: 100%; remaining binding at 0.1 µM ([3]; PLK4, 100 nM): 100%; remaining binding at 1 µM ([3]; kinase PLK4 (Entrez PLK4), compound concentration 1000 nM): 79%; remaining binding at 0.1 µM [4]: 100%; remaining binding at 0.1 µM [5]: 100%; remaining binding at 0.1 µM [6]: 100%; remaining binding at 1 µM [7]: 96%; remaining binding at 0.1 µM [8]: 100%; remaining binding at 0.1 µM [9]: 99%; remaining binding at 1 µM [10]: 56%; remaining binding at 0.1 µM [11]: 100%; Interactions Mapped ([12]; @100nM, 468 Assays Tested): 4; Percent Control ([12]; EGFR(L747-E749del, A750P)): 100%; Percent Control ([12]; EGFR(L747-S752del, P753S)): 93%; Percent Control ([12]; EGFR(L747-T751del,Sins)): 100%; Percent Control ([12]; FLT3(ITD)): 100%; Percent Control ([12]; FLT3(ITD,D835V)): 100%; Percent Control ([12]; FLT3(ITD,F691L)): 99%; remaining binding at 0.1 µM ([13]; PDPK1, 100 nM): 100%; remaining binding at 1 µM ([13]; kinase PDPK1 (Entrez PDPK1), compound concentration 1000 nM): 100%; remaining binding at 0.1 µM [14]: 79%; remaining binding at 0.1 µM [15]: 90%; remaining binding at 0.1 µM ([16]; PIM3, 100 nM): 100%; remaining binding at 1 µM ([16]; kinase PIM3 (Entrez PIM3), compound concentration 1000 nM): 100%; remaining binding at 0.1 µM [17]: 100%; remaining binding at 0.1 µM [18]: 99%; remaining binding at 0.1 µM [19]: 92%; remaining binding at 0.1 µM [20]: 100%; remaining binding at 0.1 µM [21]: 91%; remaining binding at 0.1 µM ([22]; PRKCQ, 100 nM): 100%; remaining binding at 1 µM ([22]; kinase PRKCQ (Entrez PRKCQ), compound concentration 1000 nM): 62%; remaining binding at 0.1 µM [23]: 100%; remaining binding at 1 µM [24]: 9.8%; remaining binding at 0.1 µM ([25]; PDGFRB, 100 nM): 100%; remaining binding at 1 µM ([25]; kinase PDGFRB (Entrez PDGFRB), compound concentration 1000 nM): 71%; remaining binding at 0.1 µM [26]: 100%; remaining binding at 0.1 µM [27]: 100%; remaining binding at 0.1 µM [28]: 100%; remaining binding at 1 µM [29]: 68%; remaining binding at 0.1 µM ([30]; PRKCE, 100 nM): 58%; remaining binding at 1 µM ([30]; kinase PRKCE (Entrez PRKCE), compound concentration 1000 nM): 99%
